Source: ChEMBL document CHEMBL1201862, “PubChem BioAssay data set” (2004)
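Compound exposure: 48 hours, 5 concentrations, 96-well plates. Here, GI50 denotes the concentration required for 50% inhibition of growth.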 Calls of active or inactive are those of the source. Cut-off read from the data, not from the text of the source: active = GI50 up to about 1.1 µM and inactive = higher.

Key:
Assay in all cases: growth of human tumour cells (NCI), 48 h
K562 = tested on: K562
LOX IMVI = tested on: LOX IMVI
OVCAR-3 = tested on: OVCAR-3
SNB-19 = tested on: SNB-19
SF-295 = tested on: SF-295
HL-60 = tested on: HL-60
NCI-H522 = tested on: NCI-H522
HCT-15 = tested on: HCT-15
OVCAR-8 = tested on: OVCAR-8
UACC-62 = tested on: UACC-62
U-251 = tested on: U-251
CAKI-1 = tested on: CAKI-1
NCI-H226 = tested on: NCI-H226
COLO 205 = tested on: COLO 205
MOLT-4 = tested on: MOLT-4
CCRF-CEM = tested on: CCRF-CEM
HOP-92 = tested on: HOP-92
SR = tested on: SR

Structure (SMILES)	GI50 (K562)	GI50 (LOX IMVI)	GI50 (OVCAR-3)	GI50 (SNB-19)	GI50 (SF-295)	GI50 (HL-60)	GI50 (NCI-H522)	GI50 (HCT-15) [µM]	GI50 (OVCAR-8)	GI50 (UACC-62)	GI50 (U-251)	GI50 (CAKI-1)	GI50 (NCI-H226)	GI50 (COLO 205)	GI50 (MOLT-4)	GI50 (CCRF-CEM)	GI50 (HOP-92)	GI50 (SR)
Cc1noc(C)c1CCCOC1COc2ccccc2OCCOCCOc2ccccc2OC1	> 100 µM (inactive)	> 100 µM (inactive)	> 100 µM (inactive)	> 100 µM (inactive)	> 100 µM (inactive)	> 100 µM (inactive)	> 100 µM (inactive)	> 100	> 100 µM (inactive)	27.5 µM (inactive)	> 100 µM (inactive)	> 100 µM (inactive)	> 100 µM (inactive)	> 100 µM (inactive)	–	–	–	–
O=C(O)CCC1CCc2cccc3occ1c23 (configuration not stated)	> 100 µM (inactive)	> 100 µM (inactive)	> 100 µM (inactive)	> 100 µM (inactive)	> 100 µM (inactive)	> 100 µM (inactive)	> 100 µM (inactive)	> 100	> 100 µM (inactive)	> 100 µM (inactive)	> 100 µM (inactive)	> 100 µM (inactive)	> 100 µM (inactive)	> 100 µM (inactive)	> 100 µM (inactive)	> 100 µM (inactive)	> 100 µM (inactive)	–
CC(=O)OC1[C@H]2c3cc4c(cc3CN3CCC(=C[C@@H]1O)C23)OCO4 (some centres not stated)	> 100 µM (inactive)	> 100 µM (inactive)	> 100 µM (inactive)	56.8 µM (inactive)	43.6 µM (inactive)	> 100 µM (inactive)	> 100 µM (inactive)	> 100	> 100 µM (inactive)	53.7 µM (inactive)	> 100 µM (inactive)	–	34.7 µM (inactive)	> 100 µM (inactive)	> 100 µM (inactive)	> 100 µM (inactive)	–	> 100 µM (inactive)
C[N+]1(C)C/C(=C\c2ccncc2)C(=O)/C(=C/c2ccncc2)C1	–	> 100 µM (inactive)	> 100 µM (inactive)	> 100 µM (inactive)	> 100 µM (inactive)	24.8 µM (inactive)	19.6 µM (inactive)	> 100	> 100 µM (inactive)	> 100 µM (inactive)	85.5 µM (inactive)	> 100 µM (inactive)	–	> 100 µM (inactive)	> 100 µM (inactive)	37.1 µM (inactive)	> 100 µM (inactive)	> 100 µM (inactive)
CC(C)c1ccc(/C=C(\NC(=O)c2ccccc2)c2nc3ccccc3[nH]2)cc1	27.5 µM (inactive)	27.2 µM (inactive)	37.3 µM (inactive)	47.8 µM (inactive)	–	–	26.7 µM (inactive)	43.1	32.4 µM (inactive)	37.4 µM (inactive)	39.4 µM (inactive)	50.6 µM (inactive)	55.8 µM (inactive)	35.8 µM (inactive)	23.3 µM (inactive)	34.1 µM (inactive)	36.7 µM (inactive)	–
Nc1c(-c2nc3ccccc3s2)[n+]([O-])c2ccccc2[n+]1[O-]	45.8 µM (inactive)	–	23.3 µM (inactive)	29.3 µM (inactive)	23.6 µM (inactive)	29.9 µM (inactive)	22 µM (inactive)	–	38.6 µM (inactive)	33.8 µM (inactive)	38.9 µM (inactive)	25.8 µM (inactive)	54.7 µM (inactive)	37.1 µM (inactive)	32.7 µM (inactive)	42.6 µM (inactive)	23.1 µM (inactive)	–
COc1ccc(/C=C/C(=O)c2c(-c3ccccc3)nn(C)c(=O)c2N2CCCCC2)cc1	11.8 µM (inactive)	14.7 µM (inactive)	–	18.4 µM (inactive)	21.6 µM (inactive)	–	10.7 µM (inactive)	20.7	19.5 µM (inactive)	15.7 µM (inactive)	14.5 µM (inactive)	31.2 µM (inactive)	–	16.7 µM (inactive)	3.94 µM (inactive)	9.95 µM (inactive)	3.81 µM (inactive)	–
c1ccc(C2C3=C(Nc4ncnn42)c2ccccc2C3)cc1 (configuration not stated)	7.93 µM (inactive)	15.6 µM (inactive)	8.93 µM (inactive)	14.9 µM (inactive)	8.02 µM (inactive)	5.07 µM (inactive)	6.14 µM (inactive)	20.1	30.8 µM (inactive)	4.99 µM (inactive)	2.93 µM (inactive)	42.3 µM (inactive)	–	11 µM (inactive)	17.4 µM (inactive)	15.5 µM (inactive)	21.8 µM (inactive)	–
CCOC(=N)CC(=O)Nc1ccc(Cl)cc1	> 100 µM (inactive)	> 100 µM (inactive)	> 100 µM (inactive)	> 100 µM (inactive)	> 100 µM (inactive)	> 100 µM (inactive)	> 100 µM (inactive)	> 100	> 100 µM (inactive)	> 100 µM (inactive)	> 100 µM (inactive)	> 100 µM (inactive)	> 100 µM (inactive)	> 100 µM (inactive)	> 100 µM (inactive)	> 100 µM (inactive)	–	> 100 µM (inactive)
O=C1C2c3[nH]c4ccccc4c3[C@@H]3CCCCCCCCCCC3C2C(=O)N1c1ccccc1 (some centres not stated)	8.67 µM (inactive)	16.1 µM (inactive)	16 µM (inactive)	12.4 µM (inactive)	16.3 µM (inactive)	12.1 µM (inactive)	–	38.6	18.1 µM (inactive)	20.1 µM (inactive)	18.2 µM (inactive)	–	33.5 µM (inactive)	23 µM (inactive)	–	–	–	12.8 µM (inactive)
CCC1CCc2c(OC)ccc(OCC(=O)O)c2C1=O (configuration not stated)	> 100 µM (inactive)	> 100 µM (inactive)	> 100 µM (inactive)	> 100 µM (inactive)	> 100 µM (inactive)	> 100 µM (inactive)	> 100 µM (inactive)	> 100	> 100 µM (inactive)	> 100 µM (inactive)	> 100 µM (inactive)	–	> 100 µM (inactive)	> 100 µM (inactive)	> 100 µM (inactive)	> 100 µM (inactive)	–	> 100 µM (inactive)
CCc1ccc(/N=C\c2cc(OC)c(OC)c(OC)c2)cc1	26.5 µM (inactive)	20.9 µM (inactive)	> 100 µM (inactive)	> 100 µM (inactive)	> 100 µM (inactive)	–	> 100 µM (inactive)	> 100	> 100 µM (inactive)	> 100 µM (inactive)	> 100 µM (inactive)	> 100 µM (inactive)	–	–	> 100 µM (inactive)	40.7 µM (inactive)	> 100 µM (inactive)	–
Cc1cc2cc(Cl)ccc2nc1C(=O)c1ccccc1	> 100 µM (inactive)	> 100 µM (inactive)	> 100 µM (inactive)	> 100 µM (inactive)	27.8 µM (inactive)	–	> 100 µM (inactive)	> 100	> 100 µM (inactive)	> 100 µM (inactive)	> 100 µM (inactive)	> 100 µM (inactive)	> 100 µM (inactive)	> 100 µM (inactive)	> 100 µM (inactive)	–	–	> 100 µM (inactive)
Cc1cc2c(C)nn(Cc3ccccc3)c2c(C(=O)O)c1C	–	> 100 µM (inactive)	> 100 µM (inactive)	> 100 µM (inactive)	> 100 µM (inactive)	> 100 µM (inactive)	–	> 100	> 100 µM (inactive)	> 100 µM (inactive)	> 100 µM (inactive)	–	> 100 µM (inactive)	> 100 µM (inactive)	> 100 µM (inactive)	> 100 µM (inactive)	> 100 µM (inactive)	> 100 µM (inactive)
CCOC(=O)CC1=N/C(=N/c2cc(Cl)ccc2Cl)SC1	42.5 µM (inactive)	70.5 µM (inactive)	62.4 µM (inactive)	> 100 µM (inactive)	> 100 µM (inactive)	> 100 µM (inactive)	76.4 µM (inactive)	59.4	> 100 µM (inactive)	> 100 µM (inactive)	> 100 µM (inactive)	> 100 µM (inactive)	> 100 µM (inactive)	> 100 µM (inactive)	–	76.9 µM (inactive)	> 100 µM (inactive)	–
COc1cc(C2C(Cl)C(=O)N2NC(=O)Cc2ccccc2)cc(Br)c1O (configuration not stated)	> 100 µM (inactive)	74.3 µM (inactive)	61 µM (inactive)	> 100 µM (inactive)	> 100 µM (inactive)	48 µM (inactive)	56 µM (inactive)	51.8	> 100 µM (inactive)	55 µM (inactive)	> 100 µM (inactive)	> 100 µM (inactive)	> 100 µM (inactive)	> 100 µM (inactive)	50.6 µM (inactive)	46.1 µM (inactive)	–	56.6 µM (inactive)
CCOC(=O)Nn1c(C)cc(C(=O)OC)c1C	> 100 µM (inactive)	> 100 µM (inactive)	> 100 µM (inactive)	> 100 µM (inactive)	> 100 µM (inactive)	> 100 µM (inactive)	> 100 µM (inactive)	> 100	> 100 µM (inactive)	> 100 µM (inactive)	> 100 µM (inactive)	> 100 µM (inactive)	> 100 µM (inactive)	> 100 µM (inactive)	> 100 µM (inactive)	> 100 µM (inactive)	–	–
C/C(=N/NC(=O)c1ccccc1O)c1ccc(/C(C)=N\NC(=O)c2ccccc2O)c2nc3cc(C)c(C)cc3nc12	> 100 µM (inactive)	> 100 µM (inactive)	> 100 µM (inactive)	> 100 µM (inactive)	> 100 µM (inactive)	–	> 100 µM (inactive)	> 100	> 100 µM (inactive)	> 100 µM (inactive)	> 100 µM (inactive)	–	> 100 µM (inactive)	> 100 µM (inactive)	> 100 µM (inactive)	> 100 µM (inactive)	54.7 µM (inactive)	–
